Reference: PMC10825133, “Repurposing proteasome inhibitors for improved treatment of triple-negative breast cancer” (Cell Death Discovery, 2024)
Where two headings read alike, the source gives them in different places.

Key:
[1] = test system: eight TNBC cell lines (BT-549, CAL-148, HCC1806, HCC38, HCC70, MDA-MB-436, MDA-MB-453, MDA-MB-468); assay: Monotherapy drug screen, mean across the TNBC cell lines; conditions: for area under the dose response curve (AUC), mean ± SD / IC50: 24 h; for IC50: Homo sapiens, read-out: GR50 (mean ± SD)
Summary of the method: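 Cells seeded at 4.0 × 10^3–7.5 × 10^3/well, grown 24 h, then drug-treated 24 h with matched solvent-vehicle controls per concentration; resazurin absorbance read-out, viability normalised to vehicle after background subtraction, t = 0 untreated cells for GR. AUC, IC50, GR50, GRmax via GRmetrics; combinations predicted by IDACombo, synergy scored with SynergyFinder.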

[2] = test system: CAL-148 cells; assay: Resazurin-based cell viability assay, monotherapy drug screen; set-up: species or system human; AUC: unit not given beside the values; conditions: CAL-148; for AUC: area under the dose response curve, 24 h; for GRmax: drug efficacy at highest tested dose (<0 cytotoxic, 0 cytostatic, >0 partial growth inhibition)
[3] = test system: MCF-10A cells; assay: as above; set-up: species or system human; AUC: scale not given here; conditions: for AUC: area under the dose response curve, 24 h
Summary of the method: (§1)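 Cells were seeded at the highest density (tested 1000-16000 cells/well) giving linear growth between days 1 and 3, keeping them in exponential phase over the ~52 h experiment. Viability was read after 4 h at 37 °C with 0.2 mg/ml resazurin added at 10% of medium volume; ex 560/em 615 nm.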

[4] = test system: HCC70 cells; assay: as above; set-up: species or system human; AUC: scale not given here; conditions: HCC70; for AUC: area under the dose response curve, 24 h; for GRmax: drug efficacy at highest tested dose (<0 cytotoxic, 0 cytostatic, >0 partial growth inhibition)
Summary of the method: as §1

[5] = test system: HCC1806 cells; assay: as above; set-up: species or system human; AUC: scale not given here; conditions: HCC1806; for AUC: area under the dose response curve, 24 h; for GRmax: drug efficacy at highest tested dose (<0 cytotoxic, 0 cytostatic, >0 partial growth inhibition)
Summary of the method: as §1

[6] = test system: MCF-7 cells; assay: as above; set-up: species or system human; AUC: scale not given here; conditions: MCF-7; for AUC: area under the dose response curve, 24 h; for GRmax: drug efficacy at highest tested dose (<0 cytotoxic, 0 cytostatic, >0 partial growth inhibition)
Summary of the method: as §1

[7] = test system: MDA-MB-468 cells; assay: as above; set-up: species or system human; AUC: scale not given here; conditions: MDA-MB-468; for AUC: area under the dose response curve, 24 h
Summary of the method: as §1

[8] = test system: BT-549 cells; assay: as above; set-up: species or system human; AUC: scale not given here; conditions: BT-549; for AUC: area under the dose response curve, 24 h; for GRmax: drug efficacy at highest tested dose (<0 cytotoxic, 0 cytostatic, >0 partial growth inhibition)
Summary of the method: as §1

[9] = test system: HCC38 cells; assay: as above; set-up: species or system human; AUC: scale not given here; conditions: HCC38; for AUC: area under the dose response curve, 24 h; for GRmax: drug efficacy at highest tested dose (<0 cytotoxic, 0 cytostatic, >0 partial growth inhibition)
Summary of the method: as §1

[10] = 24 h drug treatment, read-out: IC50
[11] = growth rate inhibition concentration at GR(c) = 0.5, 24 h, read-out: GR50 (the source's name)
[12] = drug efficacy at highest tested dose (<0 cytotoxic, 0 cytostatic, >0 partial growth inhibition)
[13] = Homo sapiens, growth rate inhibition concentration at GR(c) = 0.5, 24 h, read-out: GR50 (the source's name)
[14] = Homo sapiens, 24 h drug treatment, read-out: IC50
[15] = Homo sapiens, MCF7, growth rate inhibition concentration at GR(c) = 0.5, 24 h, read-out: GR50 (the source's name)

SMILES	area under the dose response curve (AUC), mean ± SD ([1]; TNBC cell lines)	AUC [2]	GRmax [2]	AUC [3]	AUC [4]	GRmax [4]	AUC [5]	GRmax [5]	AUC [6]	GRmax [6]	AUC [7]	AUC [8]	GRmax [8]	AUC [9]	GRmax [9]	IC50 [1] [nM]	IC50 [3, 14] [nM]	IC50 [3, 13] [nM]	IC50 [6, 15] [nM]	IC50 [9, 13] [nM]	further results
N.N.[Cl][Pt][Cl] [Cisplatin]	0.51 ± 0.10	0.48	−0.97	0.42	0.37	−0.89	0.48	−0.72	0.66	−0.96	0.37	0.57	−0.16	0.45	−0.67						IC50 [2, 10]: 48 nM; IC50 [2, 11]: 32 nM; IC50 [3, 10]: 27 nM; GRmax [3, 12]: −0.32; IC50 [3, 11]: 28 nM; IC50 [4, 10]: 22 nM; IC50 [4, 11]: 15 nM; IC50 [5, 10]: 48 nM; IC50 [5, 11]: 42 nM; IC50 [6, 10]: 160 nM; IC50 [6, 11]: 15 nM; IC50 [7, 10]: 15 nM; GRmax [7, 12]: −0.46; IC50 [7, 11]: 7.5 nM; IC50 [8, 10]: 53 nM; IC50 [8, 11]: 35 nM; IC50 [9, 10]: 30 nM; IC50 [9, 11]: 19 nM
CC(C)C[C@H](NC(=O)[C@@H](NC(=O)c1cccc(-c2ccccc2)n1)[C@@H](C)O)B(O)O [Delanzomib]	0.69 ± 0.10	0.77	0.39	0.62	0.75	−0.36	0.74	0.50	0.77	−0.28	0.58	0.73	0.48	0.42	−0.97	79 ± 130	18	12	37	8.2	IC50 [2, 13]: 23 nM; IC50 [4, 14]: 3300 nM; IC50 [4, 13]: 370 nM; IC50 [7, 14]: 77 nM; IC50 [7, 13]: 11 nM; IC50 [9, 14]: 12 nM
CC(=O)O[C@@]12CO[C@@H]1C[C@H](O)[C@@]1(C)C(=O)[C@H](O)C3=C(C)[C@@H](OC(=O)[C@H](O)[C@@H](NC(=O)OC(C)(C)C)c4ccccc4)C[C@@](O)([C@@H](OC(=O)c4ccccc4)[C@H]21)C3(C)C [Docetaxel]	0.79 ± 0.10	0.89	0.74	0.63	0.83	0.72	0.64	0.56	0.75	−0.44	0.77	0.79	0.61	0.78	0.17	8.8 ± 3.9	50	9	6.5	13	
COc1cccc2c1C(=O)c1c(O)c3c(c(O)c1C2=O)C[C@@](O)(C(=O)CO)C[C@@H]3O[C@H]1C[C@H](N)[C@H](O)[C@H](C)O1 [Doxorubicin]		0.72	0.15	0.72	0.88	−0.35	0.87	0.54	0.93	0.44	0.84	0.89	0.36	0.83	0.01		990	980	5700	770	cytotoxic effect at the highest dose ([1]; TNBC cell lines, by GRmax): lowest cytotoxic effects; IC50 [2, 14]: 220 nM; IC50 [2, 13]: 120 nM; IC50 [4, 14]: 3300 nM; IC50 [4, 13]: 1800 nM; IC50 [5, 13]: 6000 nM; IC50 ([6]; Homo sapiens, MCF7, 24 h drug treatment, read-out: IC50): 1800 nM; IC50 [7, 14]: 3000 nM; IC50 [7, 13]: 1500 nM; IC50 [8, 14]: 7600 nM; IC50 [8, 13]: 5600 nM; IC50 [9, 14]: 2900 nM
